Experimental data as given in patent US20220041627A1, “PRODRUGS OF ANTI-CANCER AND ANTI-AUTOIMMUNE DISEASES THERAPEUTIC AGENTS, AND METHODS OF MAKING AND USE THEREOF” (UNIVERSITY OF MARYLAND, BALTIMORE, priority 2018, published 2022).

Legend:
NCI-H226 = test: NCI-60 growth inhibition, NCI-H226; format: cell-based, human
Description: (§1) The anticancer effects of compounds 1a-1b against 60 human cancer cell lines (the Developmental Therapeutics Program of NCI) were studied. The cell lines were derived from different cancer types including leukemia, non-small-cell lung cancer, colon cancer, CNS cancer, melanoma, ovarian cancer, renal cancer, prostate cancer, and breast cancer (Table 1; the assay protocol can be found at: https://dtp.cancer.gov/default.htm). Compound 1a caused over 50% growth inhibition for most tested cell lines. […] Without wishing to be bound by any particular theory, it is believed that the differences in the anticancer effects between compounds 1a and 1b may be due to the more favorable cell membrane permeability of the boronic ester 1a.

RPMI-8226 = test: NCI-60 growth inhibition, RPMI-8226; format: cell-based, human
Description: as §1

MALME-3M = test: NCI-60 growth inhibition, MALME-3M; format: cell-based, human; settings: Melanoma MALME-3M, 48 h
Description: as §1

SK-OV-3 = test: NCI-60 growth inhibition, SK-OV-3; format: cell-based, human
Description: as §1

CAKI-1 = test: NCI-60 growth inhibition, CAKI-1; format: cell-based, human
Description: as §1

U251 = test: NCI-60 growth inhibition, U251; format: cell-based, human
Description: as §1

MDA-MB-468 = test: NCI-60 growth inhibition, MDA-MB-468; format: cell-based, human
Description: as §1

MCF7 = test: NCI-60 growth inhibition, MCF7; format: cell-based, human
Description: as §1

A498 = test: NCI-60 growth inhibition, A498; format: cell-based, human
Description: as §1

SK-MEL-2 = test: NCI-60 growth inhibition, SK-MEL-2; format: cell-based, human
Description: as §1

NCI/ADR-RES = test: NCI-60 growth inhibition, NCI/ADR-RES; format: cell-based, human; settings: Ovarian Cancer NCI/ADR-RES, 48 h
Description: as §1

HCC-2998 = test: NCI-60 growth inhibition, HCC-2998; format: cell-based, human
Description: as §1

[1] = 5-FU release study with H2O2 (LC/MS); format: physicochemical; settings: for activation by H2O2 to release 5-FU: prodrug 100 μM, H2O2 5 equiv, 30% DMSO in PBS, 37° C., RP-UPLC-MS
Description: FIGS. 1A and 1B illustrate the release of 5-FU from compounds 1a-1b. Incubation of prodrugs 1a-1b (100 μM) was carried out in the presence of 5 equivalent of H2O2: (FIG. 1A) compound 1a and (FIG. 1B) compound 1b. The conversion of prodrugs 1a-1b and release of 5-FU was monitored. The data represent mean±SD of triplicates.
Release of 5-FU from the prodrugs was performed at 37° C. in 30% DMSO/Phosphate Buffered saline (PBS). The compounds were co-incubated at 100 μM together with hydrogen peroxide (H2O2) in triplicates. At each time point, aliquots were taken from the solution and diluted in acetonitrile for quantitation in the LC/MS. LC/MS Analysis: samples were analyzed using Xevo TQ-XS Triple Quadrupole Mass Spectrometry (Waters Corp, Milford, Mass.). The column used was a Cortecs C18+2.7 μm 2.1×75 mm column. A 3-min gradient elution with 0.5 mL/min flow rate was used for the samples. Running gradient: 95% mobile phase A over 1.2 min, 95% mobile phase B over 1.2 min, and 95% A 0.6 min, with elution at 1.64 min for the compounds. The ion transitions monitored for the compounds were 5-FU (129.0>40.1) 1a (345.2>86.0), and 1b (263.1>176.1).
Compounds 1a-1b were incubated in a mixture of DMSO in PBS (30%) with the addition of H2O2 (5 equiv) at 37° C. The conversion of prodrugs 1a-1b and the production of 5-FU were followed using RP-UPLC-MS.

NCI-H460 = test: NCI-60 growth inhibition, NCI-H460; format: cell-based, human
Description: as §1

SF-268 = test: NCI-60 growth inhibition, SF-268; format: cell-based, human
Description: as §1

DU-145 = test: NCI-60 growth inhibition, DU-145; format: cell-based, human
Description: as §1

SR = test: NCI-60 growth inhibition, SR; format: cell-based, human; settings: Leukemia SR, 48 h
Description: as §1

T-47D = test: NCI-60 growth inhibition, T-47D; format: cell-based, human; settings: Breast Cancer T-47D, 48 h
Description: as §1

OVCAR-8 = test: NCI-60 growth inhibition, OVCAR-8; format: cell-based, human
Description: as §1

BT-549 = test: NCI-60 growth inhibition, BT-549; format: cell-based, human
Description: as §1

CC1(C)OB(c2ccc(Cn3cc(F)c(=O)[nH]c3=O)cc2)OC1(C)C [Compound 1a, 5-Fluoro-1-(4-(4,4,5,5-tetramethyl-1,3,2-dioxaborolan-2-yl)benzyl)pyrimidine-2,4(1H,3H)-dione]
inhibition at 50 µM (NCI-H226; Homo sapiens, Non-Small Cell lung Cancer NCI-H226, 48 h): 36% | inhibition at 50 µM (RPMI-8226; Homo sapiens, Leukemia RPMI-8226, 48 h): 32% | inhibition at 50 µM (MALME-3M; Homo sapiens): 55% | inhibition at 50 µM (SK-OV-3; Homo sapiens, Ovarian Cancer SK-OV-3, 48 h): 31% | inhibition at 50 µM (CAKI-1; Homo sapiens, Renal Cancer CAKI-1, 48 h): 25% | inhibition at 50 µM (U251; Homo sapiens, U-251, CNS Cancer U251, 48 h): 17% | inhibition at 50 µM (MDA-MB-468; Homo sapiens, Breast Cancer MDA-MB-468, 48 h): 87% | inhibition at 50 µM (MCF7; Homo sapiens, Breast Cancer MCF7, 48 h): 81% | inhibition at 50 µM (A498; Homo sapiens, Renal Cancer A498, 48 h): 74% | inhibition at 50 µM (SK-MEL-2; Homo sapiens, Melanoma SK-MEL-2, 48 h): 59% | inhibition at 50 µM (NCI/ADR-RES; Homo sapiens): 6% | inhibition at 50 µM (HCC-2998; Homo sapiens, Colon Cancer HCC-2998, 48 h): 26% | activation by H2O2 to release 5-FU [1]: activated efficiently | hydrolysis of boronic ester to boronic acid 1b ([1]; under the release assay conditions (30% DMSO in PBS, H2O2 5 equiv, 37° C.)): hydrolyzes rapidly | inhibition at 50 µM (NCI-H460; Homo sapiens, Non-Small Cell lung Cancer NCI-H460, 48 h): 66% | inhibition at 50 µM (SF-268; Homo sapiens, CNS Cancer SF-268, 48 h): 31% | inhibition at 50 µM (DU-145; Homo sapiens, Prostate Cancer DU-145, 48 h): 16% | inhibition at 50 µM (SR; Homo sapiens): 60% | inhibition at 50 µM (T-47D; Homo sapiens, T47D): 51% | inhibition at 50 µM (OVCAR-8; Homo sapiens, Ovarian Cancer OVCAR-8, 48 h): 25% | inhibition at 50 µM (BT-549; Homo sapiens, Breast Cancer BT-549, 48 h): 60%

O=c1[nH]c(=O)n(Cc2ccc(B(O)O)cc2)cc1F [Compound 1b, (4-((5-Fluoro-2,4-dioxo-3,4-dihydropyrimidin-I(2H)-yl)methyl)phenyl)boronic acid]
Growth Inhibition (%) (NCI-H226; Non-Small Cell lung Cancer NCI-H226, 50 μM, 48 h): 19% | Growth Inhibition (%) (RPMI-8226; Leukemia RPMI-8226, 50 μM, 48 h): 2% | Growth Inhibition (%) (MALME-3M; 50 μM): 32% | Growth Inhibition (%) (SK-OV-3; Ovarian Cancer SK-OV-3, 50 μM, 48 h): 13% | Growth Inhibition (%) (CAKI-1; Renal Cancer CAKI-1, 50 μM, 48 h): 12% | Growth Inhibition (%) (U251; CNS Cancer U251, 50 μM, 48 h): 4% | Growth Inhibition (%) (MDA-MB-468; Breast Cancer MDA-MB-468, 50 μM, 48 h): 22% | Growth Inhibition (%) (MCF7; Breast Cancer MCF7, 50 μM, 48 h): 33% | Growth Inhibition (%) (A498; Renal Cancer A498, 50 μM, 48 h): 31% | Growth Inhibition (%) (SK-MEL-2; Melanoma SK-MEL-2, 50 μM, 48 h): 7% | Growth Inhibition (%) (NCI/ADR-RES; 50 μM): 0% | Growth Inhibition (%) (HCC-2998; Colon Cancer HCC-2998, 50 μM, 48 h): 5% | activation by H2O2 to release 5-FU [1]: activated efficiently | Growth Inhibition (%) (NCI-H460; Non-Small Cell lung Cancer NCI-H460, 50 μM, 48 h): 1% | Growth Inhibition (%) (SF-268; CNS Cancer SF-268, 50 μM, 48 h): 14% | Growth Inhibition (%) (DU-145; Prostate Cancer DU-145, 50 μM, 48 h): −6% | Growth Inhibition (%) (SR; 50 μM): 16% | Growth Inhibition (%) (T-47D; 50 μM): 5% | Growth Inhibition (%) (OVCAR-8; Ovarian Cancer OVCAR-8, 50 μM, 48 h): 6% | Growth Inhibition (%) (BT-549; Breast Cancer BT-549, 50 μM, 48 h): 30%
